In US20260098053A1, “COMPOSITIONS AND METHODS FOR TREATING CNS DISORDERS” (SAGE THERAPEUTICS, INC., priority 2019, published 2026):

These compounds were tested against [35S]-TBPS binding, rat brain cortical membranes (assay: Steroid inhibition of [35S]-TBPS binding). Details: Table 4, 3 nM [35S]-TBPS, in the presence of 5 mM GABA, read-out: TBPS IC50.
Experimental: [35S]-t-Butylbicyclophosphorothionate (TBPS) binding assays using rat brain cortical membranes in the presence of 5 mM GABA has been described (Gee et al, J. Pharmacol. Exp. Ther. 1987, 241, 346-353; Hawkinson et al, Mol. Pharmacol. 1994, 46, 977-985; Lewin, A. H et al., Mol. Pharmacol. 1989, 35, 189-194).
Briefly, cortices are rapidly removed following decapitation of carbon dioxide-anesthetized Sprague-Dawley rats (200-250 g). The cortices are homogenized in 10 volumes of ice-cold 0.32 M sucrose using a glass/teflon homogenizer and centrifuged at 1500×g for 10 min at 4° C. The resultant supernatants are centrifuged at 10,000×g for 20 min at 4° C. to obtain the P2 pellets. The P2 pellets are resuspended in 200 mM NaCl/50 mM Na—K phosphate pH 7.4 buffer and centrifuged at 10,000×g for 10 min at 4° C. This washing procedure is repeated twice and the pellets are resuspended in 10 volumes of buffer. Aliquots ([…]) of the membrane suspensions are incubated with 3 nM [^35S]-TBPS and […] aliquots of test drug dissolved in dimethyl sulfoxide (DMSO) (final 0.5%) in the presence of 5 mM GABA. The incubation is brought to a final volume of 1.0 mL with buffer. Nonspecific binding is determined in the presence of […] and ranged from 15 to 25%. Following a 90 min incubation at room temp, the assays are terminated by filtration through glass fiber filters (Schleicher and Schuell No. 32) using a cell harvester (Brandel) and rinsed three times with ice-cold buffer. Filter bound radioactivity is measured by liquid scintillation spectrometry. Non-linear curve fitting of the overall data for each drug averaged for each concentration is done using Prism (GraphPad). […] The concentration of test compound producing 50% inhibition (IC50) of specific binding and the maximal extent of inhibition (Imax) are determined for the individual experiments with the same model used for the overall data and then the means±SEM.s of the individual experiments are calculated.
Various compounds are or can be screened to determine their potential as modulators of [^35S]-TBPS binding in vitro. These assays are or can be performed in accordance with the above

Compound	IC50 [µM]
CC[C@]12CC[C@H]3[C@@H](CC[C@@H]4C[C@](C)(O)CCC[C@@]43C)[C@@H]1CC[C@@H]2C(=O)Cn1cc(C#N)cn1 [Example 30, 1-(2-((1S,3aS,3bR,5aR,7R,10aS,10bS,12aS)-12a-ethyl-7-hydroxy-7,10a-dimethyloctadecahydrocyclohepta[a]cyclopenta[f]naphthalen-1-yl)-2-oxoethyl)-1H-pyrazole-4-carbonitrile]	< 0.1
CC[C@]12CC[C@H]3[C@@H](CC[C@@H]4CC[C@@](O)(COC)CC[C@@H]43)[C@@H]1CC[C@@H]2C(=O)Cn1cc(C#N)cn1 [Example 31, 1-(2-((1S,3aS,3bR,5aR,8S,10aS,10bR,12aS)-12a-ethyl-8-hydroxy-8-(methoxymethyl)octadecahydrocyclohepta[a]cyclopenta[f]naphthalen-1-yl)-2-oxoethyl)-1H-pyrazole-4-carbonitrile]	0.1 to 1
CC[C@]12CC[C@H]3[C@@H](CC[C@@H]4CC[C@@](O)(COC)CC[C@@H]43)[C@@H]1CC[C@@H]2C(C)=O [Example 32, 1-((1S,3aS,3bR,5aR,8S,10aS,10bR,12aS)-12a-ethyl-8-hydroxy-8-(methoxymethyl)octadecahydrocyclohepta[a]cyclopenta[f]naphthalen-1-yl)ethanone]	0.1 to 1
CC[C@]12CC[C@H]3[C@@H](CC[C@@H]4CC[C@](C)(O)CC[C@@H]43)[C@@H]1CC[C@@H]2C(=O)Cn1cc(C#N)cn1 [Example 33]	0.1 to 1
CC[C@]12CC[C@H]3[C@@H](CC=C4CC[C@](C)(O)CC[C@@]43C)[C@@H]1CC[C@@H]2C(C)=O [Example 34, 1-((1S,3aS,3bS,8S,10aR,10bS,12aS)-12a-ethyl-8-hydroxy-8,10a-dimethyl-1,2,3,3a,3b,4,6,7,8,9,10,10a,10b,11,12,12a-hexadecahydrocyclohepta[a]cyclopenta[f]naphthalen-1-yl)ethanone]	< 0.1
CC[C@]12CC[C@H]3[C@@H](CC=C4CC[C@](C)(O)CC[C@@]43C)[C@@H]1CC[C@@H]2C(=O)Cn1cc(C#N)cn1 [Example 35, 1-(2-((1S,3aS,3bS,8S,10aR,10bS,12aS)-12a-ethyl-8-hydroxy-8,10a-dimethyl-1,2,3,3a,3b,4,6,7,8,9,10,10a,10b,11,12,12a-hexadecahydrocyclohepta[a]cyclopenta[f]naphthalen-1-yl)-2-oxoethyl)-1H-pyrazole-4-carbonitrile]	< 0.1
CC[C@@]1(O)CCC[C@H]2[C@H](CC[C@@H]3[C@@H]2CC[C@]2(C)[C@H](C(C)=O)CCC[C@@H]32)C1 [Example 36, 1-((1R,4aS,4bR,6aR,8R,11aS,11bR,13aS)-8-ethyl-8-hydroxy-13a-methyloctadecahydro-1H-cyclohepta[a]phenanthren-1-yl)ethenone]	> 1
CC[C@@]1(O)CCC[C@@]2(C)[C@H](CC[C@@H]3[C@@H]2CC[C@]2(C)[C@@H](C(C)=O)CCC[C@@H]32)C1 [Example 37, 1-((1S,4aS,4bR,6aR,8R,11aS,11bS,13aS)-8-ethyl-8-hydroxy-11a,13a-dimethyloctadecahydro-1H-cyclohepta[a]phenanthren-1-yl)ethanone]	0.1 to 1
CC[C@@]1(O)CCC[C@@]2(C)[C@H](CC[C@@H]3[C@@H]2CC[C@]2(C)[C@@H](C(=O)Cn4cc(C#N)cn4)CCC[C@@H]32)C1 [Example 38, 1-(2-((1S,4aS,4bR,6aR,8R,11aS,11bS,13aS)-8-ethyl-8-hydroxy-11a,13a-dimethyloctadecahydro-1H-cyclohepta[a]phenanthren-1-yl)-2-oxoethyl)-1H-pyrazole-4-carbonitrile]	0.1 to 1
CC[C@@]1(O)CCC[C@@]2(C)[C@H](CC[C@@H]3[C@@H]2CC[C@]2(C)[C@H](C(=O)Cn4cc(C#N)cn4)CCC[C@@H]32)C1 [Example 39, 1-(2-((1R,4aS,4bR,6aR,8R,11aS,11bS,13aS)-8-ethyl-8-hydroxy-11a,13a-dimethyloctadecahydro-1H-cyclohepta[a]phenanthren-1-yl)-2-oxoethyl)-1H-pyrazole-4-carbonitrile]	> 1
C[C@@]1(O)CCC[C@@]2(C)[C@@H](CC[C@@H]3[C@@H]2CC[C@]2(C)[C@@H](C(=O)CCn4cc(C#N)cn4)CCC[C@@H]32)C1 [Example 41, 1-(3-((1S,4aS,4bR,6aS,8R,11aS,11bS,13aS)-8-hydroxy-8,11a,13a-trimethyloctadecahydro-1H-cyclohepta[a]phenanthren-1-yl)-3-oxopropyl)-1H-pyrazole-4-carbonitrile]	< 0.1
CC[C@@]1(O)CCC[C@@]2(C)[C@@H](CC[C@@H]3[C@@H]2CC[C@]2(C)[C@@H](C(=O)Cn4cc(C#N)cn4)CCC[C@@H]32)C1 [Example 42, 1-(2-((1S,4aS,4bR,6aS,8R,11aS,11bS,13aS)-8-ethyl-8-hydroxy-11a,13a-dimethyloctadecahydro-1H-cyclohepta[a]phenanthren-1-yl)-2-oxoethyl)-1H-pyrazole-4-carbonitrile]	0.1 to 1
COC[C@@]1(O)CCC[C@@]2(C)[C@@H](CC[C@@H]3[C@@H]2CC[C@]2(C)[C@@H](C(=O)Cn4cc(C#N)cn4)CCC[C@@H]32)C1 [Example 43]	< 0.1
C[C@]1(O)CC[C@@H]2CC[C@@H]3[C@H](CC[C@]4(C)[C@@H](C(=O)Cn5cc(C#N)cn5)CCC[C@@H]34)[C@@]2(C)CC1 [Example 44, 1-(2-((1S,4aS,4bR,6aS,9S,11aS,11bS,13aS)-9-hydroxy-9,11a,13a-trimethyloctadecahydro-1H-cyclohepta[a]phenanthren-1-yl)-2-oxoethyl)-1H-pyrazole-4-carbonitrile]	0.1 to 1
C[C@]1(O)CC[C@@H]2CC[C@@H]3[C@H](CC[C@]4(C)[C@H](C(=O)Cn5cc(C#N)cn5)CCC[C@@H]34)[C@@]2(C)CC1 [Example 45, 1-(2-((1R,4aS,4bR,6aS,9S,11aS,11bS,13aS)-9-hydroxy-9,11a,13a-trimethyloctadecahydro-1H-cyclohepta[a]phenanthren-1-yl)-2-oxoethyl)-1H-pyrazole-4-carbonitrile]	> 1
COC[C@]1(O)CC[C@H]2CC[C@@H]3[C@H](CC[C@]4(C)[C@@H](C(=O)Cn5cc(C#N)cn5)CCC[C@@H]34)[C@H]2CC1 [Example 46, 1-(2-((1S,4aS,4bR,6aR,9S,11aS,11bR,13aS)-9-hydroxy-9-(methoxymethyl)-13a-methyloctadecahydro-1H-cyclohepta[a]phenanthren-1-yl)-2-oxoethyl)-1H-pyrazole-4-carbonitrile]	0.1 to 1
CC[C@]1(O)CC[C@H]2CC[C@@H]3[C@H](CC[C@]4(C)[C@H](C(C)=O)CCC[C@@H]34)[C@H]2CC1 [Example 47, 1-((1R,4aS,4bR,6aR,9S,11aS,11bR,13aS)-9-ethyl-9-hydroxy-13a-methyloctadecahydro-1H-cyclohepta[a]phenanthren-1-yl)ethanone]	> 1
CC[C@]1(O)CC[C@H]2CC[C@@H]3[C@H](CC[C@]4(C)[C@H](C(=O)Cn5cc(C#N)cn5)CCC[C@@H]34)[C@H]2CC1 [Example 48, 1-(2-((1R,4aS,4bR,6aR,9S,11aS,11bR,13aS)-9-ethyl-9-hydroxy-13a-methyloctadecahydro-1H-cyclohepta[a]phenanthren-1-yl)-2-oxoethyl)-1H-pyrazole-4-carbonitrile]	> 1
CC[C@]1(O)CC[C@H]2CC[C@@H]3[C@H](CC[C@]4(C)[C@@H](C(C)=O)CCC[C@@H]34)[C@H]2CC1 [Example 49, 1-((1S,4aS,4bR,6aR,9S,11aS,11bR,13aS)-9-ethyl-9-hydroxy-13a-methyloctadecahydro-1H-cyclohepta[a]phenanthren-1-yl)ethanone]	> 1
CC[C@]1(O)CC[C@H]2CC[C@@H]3[C@H](CC[C@]4(C)[C@@H](C(=O)Cn5cc(C#N)cn5)CCC[C@@H]34)[C@H]2CC1 [Example 50]	0.1 to 1
C[C@]1(O)CC[C@H]2CC[C@@H]3[C@H](CC[C@]4(C)[C@@H](C(=O)CCn5cc(C#N)cn5)CCC[C@@H]34)[C@H]2CC1 [Example 51, 1-(3-((1S,4aS,4bR,6aR,9S,11aS,11bR,13aS)-9-hydroxy-9,13a-dimethyloctadecahydro-1H-cyclohepta[a]phenanthren-1-yl)-3-oxopropyl)-1H-pyrazole-4-carbonitrile]	0.1 to 1
